Experimental data: patent US5834484A (Board of Supervisors of Louisiana State University and …, priority 1998, dated 1998)
Where two headings read alike, the source gives them in different places.

What was measured:
[1] = biological target: T1, dopamine transporter (DAT), cocaine binding site (Rattus norvegicus, UniProt P23977); conditions: two-site model, taken from Izenwasser et al. 1994, substantially identical conditions, cited from earlier work
T1 construct: Rat striatal membranes are prepared from frozen tissue; from tissue; host or cells: rat caudate-putamen (striatal) membranes from frozen tissue
T1 sequence (P23977 whole entry): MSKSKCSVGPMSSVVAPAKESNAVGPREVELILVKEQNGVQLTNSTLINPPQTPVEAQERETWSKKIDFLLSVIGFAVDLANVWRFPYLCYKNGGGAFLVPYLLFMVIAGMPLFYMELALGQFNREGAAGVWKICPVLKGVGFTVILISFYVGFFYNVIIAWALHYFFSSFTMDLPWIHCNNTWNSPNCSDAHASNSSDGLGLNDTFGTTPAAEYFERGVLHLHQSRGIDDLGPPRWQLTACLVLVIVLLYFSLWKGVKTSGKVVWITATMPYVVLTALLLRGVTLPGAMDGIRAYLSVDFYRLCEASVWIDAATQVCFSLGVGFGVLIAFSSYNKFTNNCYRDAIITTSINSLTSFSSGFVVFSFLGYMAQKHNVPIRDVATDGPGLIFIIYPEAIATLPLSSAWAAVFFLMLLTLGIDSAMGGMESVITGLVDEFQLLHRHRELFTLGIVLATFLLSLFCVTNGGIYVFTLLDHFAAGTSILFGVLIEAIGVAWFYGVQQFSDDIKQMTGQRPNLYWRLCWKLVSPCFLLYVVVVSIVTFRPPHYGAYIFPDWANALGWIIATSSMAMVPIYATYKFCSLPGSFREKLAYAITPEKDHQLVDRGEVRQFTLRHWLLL

[2] = biological target: T1, dopamine transporter (DAT), cocaine binding site; assay: Displacement of [^3 H]WIN 35,428 binding (rat striatal / caudate-putamen membranes); conditions: for binding affinity compared with cocaine and WIN 35,065-2: high affinity Ki values/components of cocaine and WIN 35,065-2; for Ki: mean ± SEM, three experiments in triplicate, unlabeled ligand, rat caudate-putamen
[3] = tested on: DAT; conditions: in words; cited from earlier work

For `COC(=O)[C@H]1[C@@H](c2ccccc2)C[C@@H]2CC[C@H]1N2C` [WIN 35,065-2], the Ki ([1]; read-out: Ki, high affinity, inhibition of [^3 H]WIN 35,428 binding, high affinity) is given as 0.033 ± 0.017 µM and the Ki ([1]; read-out: Ki, low affinity, inhibition of [^3 H]WIN 35,428 binding, low affinity) is given as 0.314 ± 0.222 µM.
In the case of `COC(=O)C[C@H]1[C@@H](Cc2ccccc2)C[C@@H]2[C@@H](C)C[C@H]1N2C` (relative stereo) [Compound 18b], the “potency relative to corresponding 6α-methyl analog 16b” value ([2]; 18b vs 16b) is reported as “about fourfold more potent”, the “binding affinity relative to unsubstituted analog 16a” value ([2]; in words) is reported as “only a slightly lower binding affinity than that of the unsubstituted analog 16a” and the “binding affinity compared with cocaine and WIN 35,065-2” value ([2]; in words) is reported as “within a factor of two of the high affinity binding components of cocaine and WIN 35,065-2”.
For `COC(=O)[C@@H]1[C@@H](OC(=O)c2ccccc2)C[C@@H]2[C@@H](OC)C[C@H]1N2C` (relative stereo) [Compound 3, 6β-methoxypseudococaine], the “binding affinity to DAT (literature)” value [3] is given as “relatively low”.
`COC(=O)C[C@@H]1[C@@H](Cc2ccccc2)C[C@@H]2[C@H](C)C[C@H]1N2C` (relative stereo) [Compound 17b] gave a Ki [2] of 0.531 ± 0.012 µM.
For `COC(=O)C[C@@H]1[C@@H](Cc2ccccc2)C[C@@H]2[C@@H](C)C[C@H]1N2C` (relative stereo) [Compound 19b], the “potency relative to corresponding 6α-isomer 17b” value ([2]; 19b vs 17b) was “about twice as potent”, the “binding affinity relative to unsubstituted derivative 17a” value ([2]; in words) was “comparable to that of the unsubstituted derivative 17a” and the “potency (binding affinity) relative to Compound 3, in words” value ([2]; vs prior art cocaine analog 3) was “nearly three orders of magnitude more potent”.
In the case of `CCC[C@H]1C[C@@H]2[C@H](CC(=O)OC)[C@@H](Cc3ccccc3)C[C@H]1N2C` (relative stereo) [Compound 19d], the “potency (binding affinity) relative to Compound 3, in words” value ([2]; vs prior art cocaine analog 3) is reported as “nearly three orders of magnitude more potent”.
In the case of `COC(=O)C[C@H]1[C@@H](Cc2ccccc2)C[C@@H]2CC[C@H]1N2C` (relative stereo) [Compound 16a], the “binding affinity compared with cocaine and WIN 35,065-2” value ([2]; in words) is reported as “not statistically different from the binding affinities of cocaine and WIN 35,065-2” and the Ki [2] is reported as 0.091 ± 0.01 µM.
For `COC(=O)C[C@@H]1[C@@H](Cc2ccccc2)C[C@@H]2CC[C@H]1N2C` (relative stereo) [Compound 17a], the “potency relative to the binding affinities of cocaine, WIN 35,065-2 and 16a (unsubstituted 2α-isomer)” value ([2]; in words) was “significantly less potent”, the Ki [2] was 0.108 ± 0.014 µM and the “potency (binding affinity) relative to Compound 3, in words” value ([2]; vs prior art cocaine analog 3) was “nearly three orders of magnitude more potent”.
In the case of `CC[C@@H]1C[C@@H]2[C@H](CC(=O)OC)[C@@H](Cc3ccccc3)C[C@H]1N2C` (relative stereo) [Compound 17c], the “potency (binding affinity) relative to Compound 3, fold” value ([2]; vs prior art cocaine analog 3) is reported as “about 100 times”.
In the case of `COC(=O)[C@H]1[C@H]2[C@H](OC)C[C@@H](C[C@@H]1OC(=O)c1ccccc1)N2C` (relative stereo) [Compound 4, 7β-methoxypseudococaine], the “binding affinity to DAT (literature)” value [3] is listed as “relatively low”.
